The supplement of paper PMC10307832

Key:
Assay in all cases: relative viability (nuclei count vs DMSO), 5 days (fraction); higher = more cells survive
[1] = compound: CC(C)N(CCCNC(=O)Nc1ccc(C(C)(C)C)cc1)C[C@H]1O[C@@H](n2ccc3c(N)ncnc32)[C@H](O)[C@@H]1O + CC1(C)CCC(c2ccc(Cl)cc2)=C(CN2CCN(c3ccc(C(=O)NS(=O)(=O)c4ccc(N[C@H](CCN5CCOCC5)CSc5ccccc5)c(S(=O)(=O)C(F)(F)F)c4)cc3)CC2)C1 [Navitoclax] (partner 0.5 µM)
In short: (§1)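 Relative viability is defined as nuclei in treated wells over nuclei in vehicle wells. Duplicate plates were run and medians reported. Lung cancer cell lines in 1536-well plates were dosed by pin tool one day after seeding, with one drug or with a fixed anchor-drug dose plus five library-drug doses (not always all listed) in √10 steps, and nuclei were counted after 5 days.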

[2] = compound: CC(C)N(CCCNC(=O)Nc1ccc(C(C)(C)C)cc1)C[C@H]1O[C@@H](n2ccc3c(N)ncnc32)[C@H](O)[C@@H]1O + CC(=O)Nc1cccc(-n2c(=O)n(C3CC3)c(=O)c3c(Nc4ccc(I)cc4F)n(C)c(=O)c(C)c32)c1 [Trametinib] (partner 0.02 µM)
In short: as §1

[3] = compound: CC(C)=CC[C@@H](O)C1=CC(=O)c2c(O)ccc(O)c2C1=O [Shikonin] + COc1cc2c(Oc3ccc(NC(=O)C4(C(=O)Nc5ccc(F)cc5)CC4)cc3F)ccnc2cc1OCCCN1CCOCC1 [Foretinib] (partner 0.25 µM)
In short: as §1

[4] = compound: CC(C)=CC[C@@H](O)C1=CC(=O)c2c(O)ccc(O)c2C1=O [Shikonin] + O=C(CCCCCCC(=O)Nc1ccccc1)NO [Vorinostat] (partner 1 µM)
In short: as §1

| Cell Line | relative viability ([1]; first compound 0.08 µM) | relative viability ([1]; first compound 0.253 µM) | relative viability ([1]; first compound 0.8 µM) | relative viability ([1]; first compound 2.53 µM) | relative viability ([1]; first compound 8 µM) | relative viability ([2]; first compound 0.08 µM) | relative viability ([2]; first compound 0.253 µM) | relative viability ([2]; first compound 0.8 µM) | relative viability ([2]; first compound 2.53 µM) | relative viability ([2]; first compound 8 µM) | relative viability ([3]; first compound 0.01 µM) | relative viability ([3]; first compound 0.1 µM) | relative viability ([3]; first compound 0.3162 µM) | relative viability ([3]; first compound 1 µM) | relative viability ([4]; first compound 0.01 µM) | relative viability ([4]; first compound 0.1 µM) | relative viability ([4]; first compound 0.3162 µM) | relative viability ([4]; first compound 1 µM) |
| --- | --- | --- | --- | --- | --- | --- | --- | --- | --- | --- | --- | --- | --- | --- | --- | --- | --- | --- |
| HCC-366 | 1.08 | 1.05 | 0.928 | 0.898 | 0.942 | 0.264 | 0.36 | 0.325 | 0.344 | 0.287 | 0.928 | 1.2 | 0.979 | 0.939 | 0.367 | 0.425 | 0.323 | 0.484 |
| HCC-827 | 0.992 | 0.949 |  | 0.962 | 0.977 | 0.499 | 0.473 | 0.572 | 0.537 | 0.505 | 0.976 | 1.15 | 1.06 | 1.08 | 0.831 | 0.908 | 1.06 | 0.855 |
| HOP-62 | 0.89 | 1.07 | 0.846 | 0.929 | 1.03 | 0.349 | 0.432 | 0.316 | 0.347 | 0.38 | 1.28 | 1.25 | 1.28 | 1.28 | 0.663 | 0.667 | 0.739 | 0.558 |
| IA-LM | 0.693 | 0.788 | 0.951 | 0.72 | 0.586 |  |  |  |  |  | 1.14 | 1.42 | 1.32 | 1.15 | 1.08 | 0.512 | 1.07 | 1 |
| LC-2-ad | 0.612 | 0.409 | 0.435 | 0.458 | 0.462 | 0.848 | 0.936 | 0.895 | 0.917 | 0.855 | 0.869 | 0.989 | 1.04 | 1.01 | 0.696 | 0.759 | 0.739 | 0.678 |
| LCLC-97TM1 | 0.407 |  | 0.296 | 0.273 | 0.432 | 0.179 | 0.202 | 0.184 | 0.193 | 0.187 | 0.949 | 1.02 | 0.912 | 0.962 | 0.872 | 0.764 | 1.08 | 0.928 |
| LCLC-103H |  |  |  |  |  | 0.679 | 0.708 | 0.662 | 0.653 | 0.679 | 0.875 | 0.847 | 0.953 | 0.942 | 0.791 | 0.877 | 0.801 | 0.889 |
| LK-2 | 0.848 | 0.775 | 0.929 | 0.768 | 0.711 | 0.879 | 0.493 | 0.681 | 0.636 | 0.694 | 1.15 | 1.31 | 1.85 | 1.16 | 0.279 | 0.309 | 0.214 | 0.316 |
| LOU-NH91 | 0.628 | 0.581 |  | 0.652 | 0.606 | 0.788 | 0.768 |  | 0.824 | 0.763 | 0.955 | 0.934 | 1.04 | 0.9 | 0.921 | 1.02 | 1.04 | 0.957 |
| LU99A | 0.745 | 0.717 | 0.747 | 1.01 | 0.881 | 0.509 | 0.44 | 0.519 | 0.504 | 0.508 | 0.854 | 0.815 | 0.797 | 0.744 | 0.459 | 0.617 | 0.485 | 0.494 |
